Results reported in patent publication US20210024482A1, “Novel Group of STAT3 Pathway Inhibitors and Cancer Stem Cell Pathway Inhibitors” (Sumitomo Dainippon Pharma Oncology, Inc., priority 2007, published 2021).

Experiments:
Type in all cases: cell-based
SW480 Hoechst SP cells = assay: MTT cell viability, SW480 Hoechst side population CSCs; conditions: FIG. 8B
Procedure: To identify and isolate side population (SP) and non-SP fractions, SW480 cells were removed from the culture dish with trypsin and EDTA, pelleted by centrifugation, washed with phosphate-buffered saline (PBS), and resuspended at 37° C. in Dulbecco's modified Eagle's medium (DMEM) containing 2% FBS and 1 mM HEPES. The cells were then labeled with Hoechst 33342 (Invitrogen) at a concentration of 5 μg/mL. The labeled cells were incubated for 120 minutes at 37° C., either alone or with 50 μM verapamil (Sigma-Aldrich, St. Louis). After staining, the cells were suspended in Hanks' balanced saline solution (HBSS; Invitrogen) containing 2% FBS and 1 mM HEPES, passed a through 40 μm mesh filter, and maintained at 4° C. until flow cytometry analysis. The Hoechst dye was excited at 350 nm, and its fluorescence was measured at two wavelengths using a 450 DF10 (450/20 nm band-pass filter) and a 675LP (675 nm long-pass edge filter) optical filter. The gating on forward and side scatter was not stringent, and only debris was excluded,
For 3-(4,5 dimethylthiazol-2-yl)-2,5-diphenyltetrazolium (MTT) (Sigma-Aldrich, St. Louis, Mo.) analysis, cells were plated in 96 well plates at 10,000 cells per well. 24 hours after plating, compound was added to cells at indicated doses. 22 hours following compound addition, MTT was added to each well (0.5 mg/ml, final concentration) and plates were incubated for an additional 2 hours at 37° C. Medium was then aspirated and the formazan product was solubilized in 100 μl of isopropyl alcohol. The absorbance of each well was measured at 570 nm using a microplate reader.
The IC50 of compound 401 against the Hoechst side population was accessed in MTT assays and was compared to the IC50 against the non-side population.
In addition, we tested the activities of several other compounds against cancer stem cells. Briefly, freshly isolated CSCs (SW480 Hoechst SP cells or CD44^high FaDu cells) were exposed to a dose range (30-0.117 μM) of compound for 48 h before examining cell viability by MTT assay. IC50s were estimated by plotting the percentage of surviving cells. As shown in Table 4 and Table 5, compounds of present invention can target cancer stem cells.

HT29 colon cancer cells = assay: Colony formation assay, HT29; conditions: Homo sapiens, HT-29, similar conditions
CD44^high CSCs = assay: Sphere assay with CD44high CSCs; conditions: spheres grown 72 hours before challenge, FIGS. 10A and 10B
Procedure: A reliable method of measuring the self-renewal capacity of cell population if the ability to be cultured as spheres in the absence of serum or attachment. CD44^high FaDu or Hoechst side population cancer stem cells were cultured in ultra low attachment plates in cancer stem cell media (DMEM/F12, B27 Neurobasal supplement, 20 ng/ml EGF, 10 ng/ml FGF, 4 μg/ml insulin, and 0.4% BSA) to allow spheres formation. Typically, sphere formation was evaluated by microscopy after 10-14 days in culture and spheres with >50 cells were scored.
One of the hallmarks cancer stem cells is their ability to self-renew. A reliable method of measuring the self-renewal capacity of cell populations is the ability to be cultured as spheres in the absence of serum or attachment. To compare the ability of compound 401 to other targeted and chemotherapeutic agents, FACS-isolated CD44^high CSCs were grown as spheres for 72 hours before being challenged with a panel of therapeutic agents. […] Tarceva, Sutent, and Gleevec were added at approximately three times their reported therapeutic concentrations.

IC50 (HT29 colon cancer cells): < 500 nM
Compound: CC(=O)c1cc2c(o1)C(=O)c1ccccc1C2=O [Compound 401, 2-acetylnaphtho[2,3-b]furan-4,9-dione]
sensitivity of side population compared to non-side population (SW480 Hoechst SP cells): the side population is as sensitive as the non-side population
prevention of sphere proliferation (CD44^high CSCs): effective at preventing sphere proliferation
